Data: US20090306133A1, “New Acetyl Coenzyme A Carboxylase (ACC) Inhibitors And Uses In Treatments Of Obesity And Diabetes Mellitus - 087” (ASTRAZENECA AB, priority 2007, published 2009)

Tests used:
[1] = biological target: Human recombinant Acetyl-CoA Carboxylase 1 (ACC1) (Homo sapiens, UniProt Q13085); assay: Assay X: ACC1 inhibition, inorganic phosphate (malachite green); assay type: biochemical; conditions: Assay X: 37° C., 1.5 h, 5 min pre-incubation
Description: (§1) Human recombinant Acetyl-CoA Carboxylase 1 and Acetyl-CoA Carboxylase 2 (ACC1 and ACC2) were assayed by determining the amount of inorganic phosphate (Pi) generated. Pre-incubation of 15 μL enzyme together with 0.75 μL DMSO+/−compound for 5 min was done before the reaction was initiated by the addition of 10 μL substrate. […] After 1.5 h the reaction was stopped by addition of 74 μL of water followed by extensive mixing, split and transfer of 2×40 μL to a read-plate encompassing 30 μL distilled H2O per well (n=2→n=4). Colour reaction was initiated by addition of 30 μL malachite green reagent per well and allowed 15 min before absorbance reading of the plates at 660 nm. The malachite green reagent was prepared by mixing 16.4 mL ammonium molybdate solution (7.5%), 1.64 mL Tween (11%) with 82 mL Malachite Green/H2SO4-solution (0.7 g Malachite Green to 1000 mL of 10% (v/v) H2SO4).
(§2) All compounds were tested in triplicate at 10 different concentrations. Control compound (0, 50 and 100% effect) was included on each plate. […] Curve fitting was done using the following equation: y=(A+((B−A)/(1+((x/C)̂D)))) where A and B represents the curve bottom (% inhibition) and the total amplitude (% inhibition), respectively, whereas C and D are the apparent IC50 and curve slope, respectively.

[2] = biological target: Human recombinant Acetyl-CoA Carboxylase 2 (ACC2) (Homo sapiens, UniProt O00763); assay: Assay X: ACC2 inhibition, inorganic phosphate (malachite green); assay type: biochemical; conditions: Assay X: 37° C., 1.5 h, 5 min pre-incubation
Human recombinant Acetyl-CoA Carboxylase 2 (ACC2), sequence (O00763 whole entry): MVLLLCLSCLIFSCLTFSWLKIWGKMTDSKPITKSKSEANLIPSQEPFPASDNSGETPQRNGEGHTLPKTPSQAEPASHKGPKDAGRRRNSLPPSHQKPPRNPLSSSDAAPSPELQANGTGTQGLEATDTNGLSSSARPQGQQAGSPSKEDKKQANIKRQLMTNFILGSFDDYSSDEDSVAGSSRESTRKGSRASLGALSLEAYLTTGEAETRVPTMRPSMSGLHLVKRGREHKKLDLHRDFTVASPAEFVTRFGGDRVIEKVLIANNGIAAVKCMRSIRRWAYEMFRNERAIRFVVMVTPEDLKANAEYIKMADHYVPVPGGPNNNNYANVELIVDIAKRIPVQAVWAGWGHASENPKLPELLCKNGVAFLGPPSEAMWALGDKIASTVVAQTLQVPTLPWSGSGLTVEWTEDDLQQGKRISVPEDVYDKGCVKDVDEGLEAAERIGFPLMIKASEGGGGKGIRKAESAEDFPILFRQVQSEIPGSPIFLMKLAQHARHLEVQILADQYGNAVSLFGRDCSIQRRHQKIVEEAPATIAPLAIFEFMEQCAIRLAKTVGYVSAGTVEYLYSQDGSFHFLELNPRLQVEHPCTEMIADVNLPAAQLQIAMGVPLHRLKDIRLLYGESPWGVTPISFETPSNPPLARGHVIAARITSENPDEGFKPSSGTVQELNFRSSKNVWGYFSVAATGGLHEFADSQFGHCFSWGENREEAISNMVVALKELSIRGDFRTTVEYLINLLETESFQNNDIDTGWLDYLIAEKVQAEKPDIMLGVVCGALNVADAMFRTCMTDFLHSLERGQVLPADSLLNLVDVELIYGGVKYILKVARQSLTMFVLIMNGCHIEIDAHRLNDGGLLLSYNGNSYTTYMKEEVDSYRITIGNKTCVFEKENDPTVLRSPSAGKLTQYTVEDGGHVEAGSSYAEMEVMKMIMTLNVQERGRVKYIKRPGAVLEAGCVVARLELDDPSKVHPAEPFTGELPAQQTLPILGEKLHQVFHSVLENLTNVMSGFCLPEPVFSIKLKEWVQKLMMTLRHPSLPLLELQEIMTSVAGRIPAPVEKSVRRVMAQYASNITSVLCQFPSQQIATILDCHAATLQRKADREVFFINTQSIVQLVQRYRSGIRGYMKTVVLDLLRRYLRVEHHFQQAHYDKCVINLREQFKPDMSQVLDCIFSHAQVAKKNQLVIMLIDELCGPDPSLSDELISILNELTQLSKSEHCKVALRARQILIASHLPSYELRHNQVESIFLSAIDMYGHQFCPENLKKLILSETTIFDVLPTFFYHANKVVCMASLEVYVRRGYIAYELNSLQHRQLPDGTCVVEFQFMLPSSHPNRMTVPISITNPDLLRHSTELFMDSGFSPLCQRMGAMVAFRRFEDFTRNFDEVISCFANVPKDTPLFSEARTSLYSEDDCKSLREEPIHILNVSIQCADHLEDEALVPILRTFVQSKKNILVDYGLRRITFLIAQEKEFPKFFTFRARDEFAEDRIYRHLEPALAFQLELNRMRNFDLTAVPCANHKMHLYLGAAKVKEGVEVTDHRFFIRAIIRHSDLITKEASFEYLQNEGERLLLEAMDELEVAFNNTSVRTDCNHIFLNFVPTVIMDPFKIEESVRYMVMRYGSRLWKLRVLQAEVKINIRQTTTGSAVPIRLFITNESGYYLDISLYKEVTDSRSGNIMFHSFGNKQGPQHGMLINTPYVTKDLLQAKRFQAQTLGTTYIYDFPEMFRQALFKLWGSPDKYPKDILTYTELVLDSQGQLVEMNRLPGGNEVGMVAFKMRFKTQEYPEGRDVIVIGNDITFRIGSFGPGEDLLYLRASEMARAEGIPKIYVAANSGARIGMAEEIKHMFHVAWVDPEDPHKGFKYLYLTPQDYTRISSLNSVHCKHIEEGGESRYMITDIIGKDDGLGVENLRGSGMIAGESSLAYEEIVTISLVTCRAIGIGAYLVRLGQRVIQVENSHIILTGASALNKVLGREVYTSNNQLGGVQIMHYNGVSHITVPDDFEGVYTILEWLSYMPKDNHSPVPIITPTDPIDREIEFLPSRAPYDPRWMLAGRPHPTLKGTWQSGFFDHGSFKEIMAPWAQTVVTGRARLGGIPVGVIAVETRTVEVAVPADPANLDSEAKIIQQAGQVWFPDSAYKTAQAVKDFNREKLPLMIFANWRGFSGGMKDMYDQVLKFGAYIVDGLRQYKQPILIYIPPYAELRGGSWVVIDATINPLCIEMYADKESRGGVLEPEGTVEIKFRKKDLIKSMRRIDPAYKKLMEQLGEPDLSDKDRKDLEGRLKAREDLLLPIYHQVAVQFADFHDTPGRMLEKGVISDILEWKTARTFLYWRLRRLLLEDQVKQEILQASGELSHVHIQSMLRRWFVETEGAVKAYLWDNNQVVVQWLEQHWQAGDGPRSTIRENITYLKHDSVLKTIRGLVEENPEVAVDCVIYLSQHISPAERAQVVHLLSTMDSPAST
Description: as §1, §2

| SMILES | IC50 [1] [nM] | IC50 [2] [nM] |
| --- | --- | --- |
| CC(C)(C)OC(=O)NC[C@H]1CC[C@H](CNC(=O)c2cc(-c3ccc(N4CCC[C@H]4C(N)=O)nc3)nc3ccccc23)CC1 [Example 163, tert-Butyl{[trans-4-({[(2-{6-[(2S)-2-carbamoylpyrrolidin-1-yl]pyridin-3-yl}-quinolin-4-yl)-carbonyl]amino}methyl)cyclohexyl]methyl}-carbamate] | 1100 | 370 |
| CC(C)(C)OC(=O)NC[C@H]1CC[C@H](CNC(=O)c2cc(-c3ccc(NC(CO)CO)nc3)nc3ccccc23)CC1 [Example 164, tert-Butyl({trans-4-[({[2-(6-{[2-hydroxy-1-(hydroxymethyl)-ethyl]amino}pyridin-3-yl)quinolin-4-yl]-carbonyl}amino)methyl]cyclohexyl}methyl)-carbamate] | 1260 | 330 |
| CC(C)(C)OC(=O)NC[C@H]1CC[C@H](CNC(=O)c2cc(-c3ccc(N4CCNC(=O)C4)nc3)nc3ccccc23)CC1 [Example 165, tert-Butyl[(trans-4-{[({2-[6-(3-oxopiperazin-1-yl)-pyridin-3-yl]quinolin-4-yl}carbonyl)amino]-methyl}cyclohexyl)methyl]carbamate] | 540 | 160 |
| Cn1cc(CNc2ccc(-c3cc(C(=O)NC[C@H]4CC[C@H](CNC(=O)OC(C)(C)C)CC4)c4ccccc4n3)cn2)cn1 [Example 166, tert-Butyl({trans-4-[({[2-(6-{[(1-methyl-1H-pyrazol-4-yl)methyl]amino}-pyridin-3-yl)quinolin-4-yl]carbonyl}amino)-methyl]cyclohexyl}methyl)carbamate] | 820 | 410 |
| CC(C)(C)OC(=O)NC[C@H]1CC[C@H](CNC(=O)c2cc(-c3ccc(NCCC(N)=O)nc3)nc3ccccc23)CC1 [Example 167, tert-Butyl{[trans-4-({[(2-{6-[(3-amino-3-oxopropyl)amino]pyridin-3-yl}quinolin-4-yl)-carbonyl]amino}methyl)cyclohexyl]methyl}carbamate] | 4400 | 1580 |
| CC(C)(C)OC(=O)NC[C@H]1CC[C@H](CNC(=O)c2cc(-c3ccc(N4CC(O)C4)nc3)nc3ccccc23)CC1 [Example 168, tert-Butyl[(trans-4-{[({2-[6-(3-hydroxyazetidin-1-yl)-pyridin-3-yl]quinolin-4-yl}carbonyl)amino]-methyl}cyclohexyl)methyl]carbamate] | 680 | 230 |
| CC[C@H](Nc1ccc(-c2cc(C(=O)NC[C@H]3CC[C@H](CNC(=O)OC(C)(C)C)CC3)c3ccccc3n2)cn1)C(N)=O [Example 169, tert-Butyl({trans-4-[({[2-(6-{[(1S)-1-carbamoylpropyl]amino}pyridin-3-yl)-quinolin-4-yl]-carbonyl}amino)methyl]cyclohexyl}methyl)carbamate] | 1370 | 650 |
| Cc1nc(CNc2ccc(-c3cc(C(=O)NC[C@H]4CC[C@H](CNC(=O)OC(C)(C)C)CC4)c4ccccc4n3)cn2)no1 [Example 170, tert-Butyl({trans-4-[({[2-(6-{[(5-methyl-1,2,4-oxadiazol-3-yl)methyl]amino}-pyridin-3-yl)quinolin-4-yl]carbonyl}amino)-methyl]cyclohexyl}-methyl)carbamate] | 1200 | 480 |
| CC(C)(C)OC(=O)NC[C@H]1CC[C@H](CNC(=O)c2cc(-c3ccc(N4CNC(=O)C4)nc3)nc3ccccc23)CC1 [Example 172, tert-Butyl[(trans-4-{[({2-[6-(4-oxoimidazolidin-1-yl)-pyridin-3-yl]quinolin-4-yl}carbonyl)amino]-methyl}cyclohexyl)-methyl]carbamate] | 3500 | 160 |
| CC(C)(C)OC(=O)NC[C@H]1CC[C@H](CNC(=O)c2cc(-c3ccc(OCCO)nc3)nc3ccccc23)CC1 [Example 174, tert-Butyl[(trans-4-{[({2-[6-(2-hydroxyethoxy)-pyridin-3-yl]-quinolin-4-yl}-carbonyl)amino]-methyl}cyclohexyl)methyl]carbamate] | 1000 | 340 |
| CC(C)(C)OC(=O)NC[C@H]1CC[C@H](CNC(=O)c2cc(-c3ccc(OC4CCOCC4)nc3)nc3ccccc23)CC1 [Example 175, tert-Butyl[(trans-4-{[({2-[6-(tetrahydro-2H-pyran-4-yloxy)-pyridin-3-yl]-quinolin-4-yl}-carbonyl)amino]-methyl}cyclohexyl)methyl]carbamate] | 7300 | 500 |
| CC(C)(C)OC(=O)NC[C@H]1CC[C@H](CNC(=O)c2cc(-c3ccc(OCN4CCCC4=O)nc3)nc3ccccc23)CC1 [Example 177, tert-Butyl{[trans-4-({[(2-{6-[(2-oxopyrrolidin-1-yl)methoxy]pyridin-3-yl}quinolin-4-yl)carbonyl]amino}-methyl)cyclohexyl]-methyl}carbamate] | 4310 | 1710 |
| CC(C)(C)OC(=O)NC[C@H]1CC[C@H](CNC(=O)c2cc(-c3ccc(OCC(N)=O)nc3)nc3ccccc23)CC1 [Example 178, tert-Butyl[(trans-4-{[({2-[6-(2-amino-2-oxoethoxy)pyridin-3-yl]quinolin-4-yl}carbonyl)amino]-methyl}cyclohexyl)methyl]carbamate] | 1550 | 330 |
| CN1CCN(CCOc2ccc(-c3cc(C(=O)NC[C@H]4CC[C@H](CNC(=O)OC(C)(C)C)CC4)c4ccccc4n3)cn2)CC1 [Example 179, tert-Butyl{[trans-4-({[(2-{6-[2-(4-methylpiperazin-1-yl)ethoxy]pyridin-3-yl}quinolin-4-yl)carbonyl]amino}-methyl)cyclohexyl]-methyl}carbamate] | 1800 | 550 |
| CC(C)(C)OC(=O)NC[C@H]1CC[C@H](CNC(=O)c2cc(N3CCNCC3)nc3ccccc23)CC1 [Example 190, tert-Butyl {[trans-4-({[(2-piperazin-1-ylquinolin-4-yl)carbonyl]amino}methyl)-cyclohexyl]methyl}carbamate] | 13600 | 1300 |
| CC(=O)NCC1CCN(c2cc(C(=O)NC[C@H]3CC[C@H](CNC(=O)OC(C)(C)C)CC3)c3ccccc3n2)CC1 [Example 191, tert-Butyl [(trans-4-{[({2-[4-(acetamidomethyl)piperidin-1-yl]quinolin-4-yl}carbonyl)amino]methyl}cyclohexyl)methyl]carbamate] | 2960 | 970 |
| CC(=O)NCCC1CCN(c2cc(C(=O)NC[C@H]3CC[C@H](CNC(=O)OC(C)(C)C)CC3)c3ccccc3n2)CC1 [Example 192, tert-Butyl [(trans-4-{[({2-[4-(2-acetamidoethyl)piperidin-1-yl]quinolin-4-yl}carbonyl)amino]methyl}cyclohexyl)methyl]carbamate] | 1960 | 560 |
| CN(C)CCC1CCN(c2cc(C(=O)NC[C@H]3CC[C@H](CNC(=O)OC(C)(C)C)CC3)c3ccccc3n2)CC1 [Example 193, tert-butyl {[trans-4-({[(2-{4-[2-(dimethylamino)ethyl]piperidin-1-yl}quinolin-4-yl)carbonyl]amino}methyl)cyclohexyl]methyl}carbamate] | 440 | 100 |
| CC(C)(C)OC(=O)NC[C@H]1CC[C@H](CNC(=O)c2cc(N3CCC(CCN)CC3)nc3ccccc23)CC1 [Example 194, tert-Butyl [(trans-4-{[({2-[4-(2-aminoethyl)piperidin-1-yl]quinolin-4-yl}carbonyl)amino]methyl}cyclohexyl)methyl]carbamate] | 510 | 50 |
| CN(C)CCOc1ccc(-c2cc(C(=O)NC[C@H]3CC[C@H](CNC(=O)OC4CCOCC4)CC3)c3ccccc3n2)cn1 [Example 195, Tetrahydro-2H-pyran-4-yl {[trans-4-({[(2-{6-[2-(dimethylamino)ethoxy]pyridin-3-yl}quinolin-4-yl)carbonyl]amino}methyl)cyclohexyl]methyl}carbamate] | 4900 | 820 |
| CN(C)CCOc1ccc(-c2cc(C(=O)NC[C@H]3CC[C@H](CNC(=O)O[C@H]4CCOC4)CC3)c3ccccc3n2)cn1 [Example 196, (3S)-Tetrahydrofuran-3-yl {[trans-4-({[(2-{6-[2-(dimethylamino)ethoxy]pyridin-3-yl}quinolin-4-yl)carbonyl]amino}methyl)cyclohexyl]methyl}carbamate] | 3480 | 920 |
| O=C(NC[C@H]1CC[C@H](CNC(=O)c2cc(-c3ccc(NCCO)nc3)nc3ccccc23)CC1)OC1CCOCC1 [Example 197, Tetrahydro-2H-pyran-4-yl {[trans-4-({[(2-{6-[(2-hydroxyethyl)amino]pyridin-3-yl}quinolin-4-yl)carbonyl]amino}methyl)cyclohexyl]methyl}carbamate] | 9640 | 1980 |
| CN(C)CCNc1ccc(-c2cc(C(=O)NC[C@H]3CC[C@H](CNC(=O)OC4CCOCC4)CC3)c3ccccc3n2)cn1 [Example 198, Tetrahydro-2H-pyran-4-yl({trans-4-[({[2-(6-{[2-(dimethylamino)-ethyl]amino}pyridin-3-yl)quinolin-4-yl]carbonyl}amino)-methyl]cyclohexyl}-methyl)carbamate] | 1420 | 380 |
